Results as given in patent US7495027B2, “3-aryl-4-hydroxyfuranone compounds and the human and animal health use thereof” (Wyeth, priority 2003, dated 2009).

What was measured:
C. elegans = experiment: Efficacy against nematodes (C. elegans motility rating); set-up: key: 0: no effect; 7: reduced movement in 24 h; 8: dead in 24 h; 9: dead in 4 h; conditions: observations at 4 h and 24 h postimmersion
Summary of the method: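 Mixed-stage C. elegans (~50 per well, L1 to adult) in M9 buffer exposed to test compound at 100 ppm, 150 ppm or 200 μM final. Motility of larvae and adults scored under dissecting microscope at 4 h and 24 h.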

[1] = system: Trichostrongylus columbriformis; experiment: In vivo efficacy against T. colubriformis in infected gerbils; conditions: gerbils infected with T. colubriformis, single oral dose of 50 mg/kg by gavage, worm counts four days post-treatment, % mortality as compared to negative control
Procedure: In Vivo Evaluation of the Efficacy of Test Compounds Against T. colubriformis
In this evaluation, gerbils are infected with Trichostrongylus columbriformis infective larvae at a concentration of approximately 800 L3/mL. Larvae for gerbil infections are cultured from feces from sheep previously infected with T. colubriformis. One week post infection, test compounds are administered by gavage as a single oral dose of 50 mg/kg of body weight. For each group of 3 gerbils, 10 mg of test compound are dissolved in 2 mL of PEG 400:DMSO (1:2 v/v) and each animal is administered the test solution at a rate of 0.1 mL/10 g of body weight. […] All animals are observed daily for morbidity and mortality. Four days post-treatment, all animals are weighed and necropsied. Worm counts are conducted with the use of stereoscopes and counters.

COc1ccc(/C=C2\OC(=O)C(c3cccc(C(F)(F)F)c3)=C2O)cc1 [R=H; R1=3-CF3—C6H4; R2=4-OCH3—C6H4] showed a Rating (C. elegans; dose 150 ppm) of 9 and a Mortality [1] of 3.10%.

O=C1OC(=Cc2ccc(-c3ccc(Cl)cc3)cc2)C(O)=C1c1cccc(C(F)(F)F)c1 (mixture of isomers) showed a Rating (C. elegans; dose 100 ppm) of 9 and a Mortality [1] of 31.30%.

With N#Cc1ccc(-c2ccc(C=C3OC(=O)C(c4cccc(C(F)(F)F)c4)=C3O)cc2)cc1 (mixture of isomers) the Rating (C. elegans; dose 100 ppm) was 9 and the Mortality [1] was 47.50%.

O=C1OC(=Cc2ccc(F)cc2)C(O)=C1c1cccc(Cl)c1 (mixture of isomers) [R=H; R1=3-Cl—C6H4**; R2=4-F—C6H4] was tested, and the Rating (C. elegans; dose 100 ppm) was 9 and the Mortality [1] was 3.00%.

O=C1OC(=Cc2ccc(C(F)(F)F)cc2)C(O)=C1c1cccc(C(F)(F)F)c1 (mixture of isomers) [R=H; R1=3-CF3—C6H4**; R2=4-CF3—C6H4] showed a Rating (C. elegans; dose 100 ppm) of 9 and a Mortality [1] of 0.00%.

O=C1O/C(=C\c2ccccc2C(F)(F)F)C(O)=C1c1ccc(-c2ccccc2)cc1 [R=H; R1=4-biphenyl; R2=2-CF3—C6H4] showed a Rating (C. elegans; dose 150 ppm) of 9 and a Mortality [1] of 23.90%.

For N#Cc1ccc(C=C2OC(=O)C(c3ccc(-c4ccc(C#N)cc4)cc3)=C2O)cc1 (mixture of isomers), the Rating (C. elegans; dose 100 ppm) was 9 and the Mortality [1] was 29.80%.

With O=C1OC(=Cc2ccc(C(F)(F)F)cc2)C(O)=C1c1ccc(-c2ccc(Cl)cc2)cc1 (mixture of isomers) the Rating (C. elegans; dose 100 ppm) was 9 and the Mortality [1] was 21.30%.

N#Cc1ccc(-c2ccc(/C=C3\OC(=O)C(c4ccc(Cl)cc4)=C3O)cc2)cc1 [R=H; R1=4-Cl—C6H4*; R2=4-(4′-CN-biphenyl)] showed a Rating (C. elegans; dose 150 ppm) of 9 and a Mortality ([1]; 50 mg/kg) of 23.80%.

With O=C1OC(=Cc2ccc(-c3ccc(Cl)cc3)cc2)C(O)=C1c1cccc(Cl)c1 (mixture of isomers) the Rating (C. elegans; dose 100 ppm) was 9 and the Mortality [1] was 37.60%.

Work on O=C1OC(=Cc2cc(Cl)cc(Cl)c2)C(O)=C1c1ccc(OC(F)(F)F)cc1 (mixture of isomers) [R=H; R1=4-OCF3—C6H4**; R2=3,5-diCl—C6H3] yielded a Rating (C. elegans; dose 100 ppm) of 9 and a Mortality [1] of 33.40%.

For N#Cc1ccc(C2=C(O)C(=Cc3ccc(-c4ccc(C#N)cc4)cc3)OC2=O)cc1 [R=H; R1=4-CN—C6H4*; R2=4-(4′-CN-biphenyl)], the Rating (C. elegans; dose 150 ppm) was 9 and the Mortality [1] was 88.07%.

Work on O=C1OC(=Cc2cnccc2-c2ccc(F)cc2)C(O)=C1c1ccc(OC(F)(F)F)cc1 (mixture of isomers) yielded a Rating (C. elegans; dose 100 ppm) of 9 and a Mortality [1] of 12.80%.

For C=CCOC1=C(c2ccc(Cl)cc2)C(=O)OC1=Cc1ccc(C#N)cc1 (mixture of isomers), the Rating (C. elegans; dose 100 ppm) was 0 and the Mortality [1] was 0.00%.

Compound N#Cc1cccc(C2=C(O)C(=Cc3ccc(C(F)(F)F)cc3)OC2=O)c1 (mixture of isomers) [R=H; R1=3-CN—C6H4**; R2=4-CF3—C6H4] has a Rating (C. elegans; dose 100 ppm) of 9 and a Mortality [1] of 0.00%.

For O=C1OC(=Cc2ccc3ccccc3c2)C(O)=C1c1cccc2ccccc12 [R=H; R1=1-naphthyl; R2=2-naphthyl], the Rating (C. elegans; dose 150 ppm) was 9 and the Mortality [1] was 28.90%.

N#Cc1ccc(C2=C(O)C(=Cc3ccc(OC(F)F)cc3)OC2=O)cc1 (mixture of isomers) [R=H; R1=4-CN—C6H4**; R2=4-OCHF2—C6H4] was tested, and the Rating (C. elegans; dose 100 ppm) was 9 and the Mortality [1] was 48.40%.

With N#Cc1ccc(C2=C(O)C(=Cc3cccc(C(F)(F)F)c3)OC2=O)cc1 (mixture of isomers) [R=H; R1=4-CN—C6H4**; R2=3-CF3—C6H4] the Rating (C. elegans; dose 100 ppm) was 9 and the Mortality [1] was 50.00%.

In the case of COC1=C(c2ccc(Cl)cc2)C(=O)OC1=Cc1ccc(C#N)cc1 (mixture of isomers) [R=CH3; R1=4-Cl—C6H4**; R2=4-CN—C6H4], the Rating (C. elegans; dose 100 ppm) is reported as 0 and the Mortality [1] is reported as 0.00%.

Work on O=C1O/C(=C\c2ccc(Cl)cc2)C(O)=C1c1ccc(-c2ccccc2)cc1 [R=H; R1=4-biphenyl; R2=4-Cl—C6H4] yielded a Rating (C. elegans; dose 150 ppm) of 9 and a Mortality [1] of 44.70%.

In the case of O=C1OC(=Cc2ccc(Cl)c(Cl)c2)C(O)=C1c1ccc(Cl)cc1 (mixture of isomers) [R=H; R1=4-Cl—C6H4**; R2=3,4-diCl—C6H4], the Rating (C. elegans; dose 100 ppm) is reported as 9 and the Mortality [1] is reported as 58.0%.

For COc1ccc(C2=C(O)C(=Cc3ccc(-c4ccccc4)cc3)OC2=O)cc1 [R=H; R1=4-OCH3—C6H4; R2=4-biphenyl], the Rating (C. elegans; dose 150 ppm) was 9 and the Mortality [1] was 44.90%.

Work on O=C1O/C(=C\c2ccc(Cl)cc2)C(O)=C1c1cccc(C(F)(F)F)c1 [R=H; R1=3-CF3—C6H4; R2=4-Cl—C6H4] yielded a Rating (C. elegans; dose 100 ppm) of 9 and a Mortality [1] of 21.60%.

O=C1OC(=Cc2ccc(-c3ccccc3)cc2)C(O)=C1c1cccc(Cl)c1 [R=H; R1=3-Cl—C6H4; R2=4-biphenyl] showed a Rating (C. elegans; dose 150 ppm) of 9 and a Mortality [1] of 19.40%.

Compound O=C1O/C(=C\c2cccc(C(F)(F)F)c2)C(O)=C1c1cccc(C(F)(F)F)c1 [R=H; R1=3-CF3—C6H4; R2=3-CF3—C6H4] has a Rating (C. elegans; dose 150 ppm) of 9 and a Mortality [1] of 10.10%.

In the case of O=C1OC(=Cc2ccc(-c3ccc(C(F)(F)F)cc3)cc2)C(O)=C1c1ccc(Cl)cc1 (mixture of isomers), the Rating (C. elegans; dose 100 ppm) is reported as 9 and the Mortality [1] is reported as 0.00%.

Work on O=C1OC(=Cc2ccccn2)C(O)=C1c1ccc(OC(F)(F)F)cc1 (mixture of isomers) [R=H; R1=4-OCF3—C6H4**; R2=pyridine-2-yl] yielded a Rating (C. elegans; dose 100 ppm) of 0 and a Mortality [1] of 0.00%.

With Cc1ccccc1-c1ccc(C=C2OC(=O)C(c3cccc(Cl)c3)=C2O)cc1C the Rating (C. elegans; dose 150 ppm) was 9 and the Mortality [1] was 10.80%.

Compound O=C1OC(=Cc2cc(C(F)(F)F)ccc2F)C(O)=C1c1ccc(OC(F)(F)F)cc1 (mixture of isomers) [R=H; R1=4-OCF3—C6H4**; R2=2-F-5-CF3—C6H3] has a Rating (C. elegans; dose 100 ppm) of 9 and a Mortality [1] of 29.50%.

With O=C1O/C(=C\c2ccc(-c3ccccc3)cc2)C(O)=C1c1cccc2ccccc12 [R=H; R1=1-naphthyl; R2=4-biphenyl] the Rating (C. elegans; dose 150 ppm) was 9 and the Mortality [1] was 18.50%.

For O=C1OC(=Cc2ccc3ccccc3c2)C(O)=C1c1ccc(Cl)cc1 [R=H; R1=4-Cl—C6H4; R2=2-naphthyl], the Rating (C. elegans; dose 150 ppm) was 9 and the Mortality [1] was 52.80%.

O=C1O/C(=C\c2ccc3ccccc3c2)C(O)=C1c1ccc2ccccc2c1 [R=H; R1=2-naphthyl; R2=2-naphthyl] was tested, and the Rating (C. elegans; dose 150 ppm) was 9 and the Mortality [1] was 13.80%.

In the case of N#Cc1ccc(C2=C(O)C(=Cc3ccc(OC(F)(F)C(F)F)cc3)OC2=O)cc1 (mixture of isomers) [R=H; R1=4-CN—C6H4**; R2=4-OCF2CHF2—C6H4], the Rating (C. elegans; dose 100 ppm) is reported as 9 and the Mortality [1] is reported as 92.80%.

N#Cc1ccc(-c2ccc(C=C3OC(=O)C(c4ccc(C(F)(F)F)cc4)=C3O)cc2)cc1 (mixture of isomers) was tested, and the Rating (C. elegans; dose 100 ppm) was 9 and the Mortality [1] was 91.50%.

Work on O=C1OC(=Cc2ccc(F)cc2)C(O)=C1c1ccc(F)cc1 (mixture of isomers) [R=H; R1=4-F—C6H4**; R2=4-F—C6H4] yielded a Rating (C. elegans; dose 100 ppm) of 9 and a Mortality [1] of 0.00%.

Compound O=C1OC(=Cc2ncccc2Br)C(O)=C1c1ccc(OC(F)(F)F)cc1 (mixture of isomers) has a Rating (C. elegans; dose 100 ppm) of 0 and a Mortality [1] of 26.90%.

N#Cc1ccc(C2=C(O)C(=Cc3ccc(Cl)s3)OC2=O)cc1 (mixture of isomers) was tested, and the Rating (C. elegans; dose 100 ppm) was 9 and the Mortality [1] was 20.60%.

Work on O=C1O/C(=C\c2ccc3ccccc3c2)C(O)=C1c1cccc(C(F)(F)F)c1 [R=H; R1=3-CF3—C6H4; R2=2-naphthyl] yielded a Rating (C. elegans; dose 150 ppm) of 9 and a Mortality [1] of 35.20%.
